# According to patent publication US10705094B2, “TNF receptor signaling modulator assay” (UCB Biopharma SRL, priority 2015, dated 2020):
# pIC50: −log10 of the molar value.
# Experiments:
# [1] = test system: TNFα-induced IL-8 production; test: Inhibition of TNFα-induced IL-8 production in human monocytes; assay type: cell-based; settings: Monocyte, 18 h
# Description: Venous blood from healthy donors was collected by venupuncture into sodium/heparin containing tubes (BD Biosciences). Peripheral blood mononuclear cells (PBMC) were isolated by density gradient centrifugation with Ficoll Paque (Amersham Biosciences). Briefly, 10 mL of blood was diluted 1:1 (v/v) with RPMI 1640 (Gibco) and carefully layered onto 20 mL Ficoll Paque. Cells were spun down for 30 minutes (min) at 470 g, the PBMC collected, washed once in RPMI 1640 and any remaining contaminating erythrocytes lysed in erythrocyte lysis buffer (1 g/L KHCO3, 8.3 g/L NH4Cl, 0.0372 g/L EDTA). Isolation of monocytes from the PBMC was performed using CD14+ Magnetic MicroBeads (Miltenyi Biotec) according to the manufacturer's instructions. Briefly, PBMC were resuspended in Dulbecco's modified Eagle's medium containing 5% BSA (Sigma) and 2 mM EDTA (Sigma) at 1×10^7 cells/ml. 25 μL of CD14 MicroBeads per 10^7 total cells were incubated for 15 min at room temperature. The magnetic separation was performed using a LS column (Miltenyi Biotec). […]
# Human IL-8 was measured in the cell culture supernatants using enzyme-linked immunosorbent assay (ELISA) kits from R&D Systems Ltd. according to the manufacturer's instructions. […] Plates were read at a wavelength of 630 nm with correction at 470 nm.
# TNFα and TNF-R = TNFα and TNF-R (Homo sapiens, UniProt P01375); test: LC-MS analysis of size exclusion fractions of TNFα, TNF-R and compound; assay type: binding; settings: compound added before or after TNFα/TNF-R complex formation
# Sequence of TNFα and TNF-R (P01375 77-233 limits assumed): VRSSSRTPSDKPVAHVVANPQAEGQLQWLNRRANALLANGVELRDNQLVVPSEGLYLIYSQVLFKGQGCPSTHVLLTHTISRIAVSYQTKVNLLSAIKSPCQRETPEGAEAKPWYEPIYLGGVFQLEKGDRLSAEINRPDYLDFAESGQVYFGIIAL
# Sequence of TNFα and TNF-R (P19438 30-211 partner limits assumed): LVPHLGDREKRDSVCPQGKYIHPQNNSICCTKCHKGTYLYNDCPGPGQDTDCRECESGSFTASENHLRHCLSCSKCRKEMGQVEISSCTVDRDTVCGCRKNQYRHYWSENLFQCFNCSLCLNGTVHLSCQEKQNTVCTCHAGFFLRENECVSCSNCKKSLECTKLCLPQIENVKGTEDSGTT
# Description: Fractions from size exclusion chromatographic separation of mixtures of TNFα, TNF-R and the compound of formula (1) were analysed by liquid chromatography-mass spectrometry (LC-MS). Two samples were prepared for size exclusion chromatography.
# TNFα trimer = TNFα trimer (Homo sapiens, UniProt P01375); test: Mass spectrometric analysis of compound binding to and stabilisation of TNFα trimer
# Sequence of TNFα trimer (P01375 77-233 limits assumed): as the sequence (P01375 77-233 limits assumed) above
# Description: Mass spectrometry was typically performed using a Waters LCT-premier Time-of-Flight mass spectrometer or a Waters SynaptG2 Q-TOF mass spectrometer. Samples were introduced using an Advion Triversa Nanomate nanoflow infusion device which replaces the conventional spectrometer source, sample injection was via an “A” series chip with […] nozzle size at a nominal flow rate of 100 nl/min. Further modifications to the Waters LCT-premier Time-of-Flight mass spectrometer include a customised source cooling device allowing precise control of the source temperature and a commercial pressure regulation device giving precise control over the vacuum conditions in the source region. Together these modifications help retain the TNFα trimer in a native, folded conformation and facilitate the detection of complexes formed with test compounds of weak affinities.
# Ions were generated using standard positive ion electrospray conditions resulting in multiple charging of TNFα.
# Mass spectrometry is very sensitive to the buffer salts present in the protein sample. Typical buffer salts such as potassium or sodium phosphates have a severely detrimental affect on ionisation. Accordingly protein samples were pre-treated to remove these salts using a Zeba desalt spin column, the protein being exchanged into a mass spectrometry compatible buffer system, typically 50 mM Ammonium Acetate at pH 6.8.
# Typically the test compounds were presented as 10 mM DMSO stock solutions such that when they are incubated with TNFα in solution the final DMSO concentration is 5%. […] This is evidenced by the changes in the number of charges acquired by the protein under the various conditions described.
# Test compounds were prepared as 10 mM solutions in dimethylsulphoxide (DMSO). Therefore, it was necessary to establish the effect of DMSO on the native TNFα trimer in the absence of a test compound. DMSO was added to an aqueous solution of TNFα trimer to give a final concentration of 5% v/v and the mass spectrum acquired.
# The compound of formula (1) was added to a solution containing TNFα and 5% v/v DMSO and the mass spectrum acquired.
# Further evidence for the stabilization of the trimeric form of TNFα by the test compounds was obtained from analyzing the samples under harsher ionization conditions that tend to favour breakdown of the native trimeric form into monomers.
# Incubation of a library of test compounds, including the compound of formula (1) with TNFα was monitored by mass spectrometry under soft ionization conditions. […] This confirms that the test compounds, including the compound of formula (1), have a different mode of action to known compounds, which stabilize the dimeric form of TNFα.
# A species of lower molecular weight (˜473 Da appears to bind at less than 5% occupancy). C87 has a molecular weight of 503 Da.
structure (smiles),measurement,setting,value
"Cc1ccc(C)c(Cn2c(C(O)c3ccncc3)nc3ccccc32)c1 (stereo not shown) [Compound (1), [1-(2,5-Dimethylbenzyl)-1H-benzimidazol-2-yl](pyridin-4-yl)methanol]",pIC50,[1],6.34
same,binding to TNFα in the presence of TNF-R,TNFα and TNF-R,binds to TNFα even in the presence of TNF-R
same,stabilisation of trimeric TNFα (charge state envelope),"TNFα trimer; 5% v/v DMSO, soft ionisation",stabilization of the trimeric TNFα complex over and above that observed in the absence of DMSO
same,quantity of TNFα monomer detected,"TNFα trimer; harsher ionization conditions, data not shown",significantly reduced
same,binding to the monomeric form of TNFα,TNFα trimer; soft ionization conditions,not observed to bind
same,stabilization of the dimeric form of TNFα,TNFα trimer; soft ionization conditions,no evidence for stabilization
same,stoichiometry of binding,TNFα trimer; soft ionization conditions,one molecule of the compound of formula (1) per TNFα trimer
